Source: patent US9951088B2, “D2 receptor modulators and methods of use thereof in the treatment of diseases and disorders” (SUNOVION PHARMACEUTICALS INC., priority 2012, dated 2018)

How the values were obtained:
[1] = target: T1, long isoform of human D2 receptor (Homo sapiens, UniProt P14416); assay: cAMP HTRF Agonist Assay (DRD2L PathHunter CHO-K1 cells, forskolin-stimulated)
[2] = target: T1, long isoform of human D2 receptor; assay: Arrestin Agonist Assay (DRD2L PathHunter CHO-K1 cells, β-arrestin recruitment)
[3] = target: T1, long isoform of human D2 receptor; assay: Arrestin Antagonist Assay (DRD2L PathHunter CHO-K1 cells, vs EC80 dopamine); settings: for Emax: CHO-K1, read-out: β-arrestin (antagonist mode) Imax
Experimental: Cell Lines: Activities of the compounds were assessed using a Chinese Hamster Ovary (CHO—K1) cell line that recombinantly expressed the long isoform of human D2 receptor (DRD2L PathHunter cells). The D2 receptor DNA sequence was modified to contain a “ProLink” at its C-terminus which allowed complementation with an “enzyme acceptor” (EA)-tagged β-arrestin protein. The recruitment of the O-arrestin by the D2 receptor led to complementation of the ProLink and EA and formation of active β-galactosidase which generated a D2-specific signal that was measured.
Arrestin Antagonist Assay: One day prior to testing, a vial of high density stock of DRD2L PathHunter cells was thawed, and 1×10^7 cells diluted into 40 mL of growth media (Ham's F12/10% HI FBS/1% PSG). 20 μL cells per well were seeded directly into assay plates, and the plates were allowed to rest for 1 h at RT before incubating in a plate incubator overnight.
The plate was incubated for 30 min at 37° C. 15 μL PathHunter detection reagent was added to each well of the assay plate, which was then covered and incubated for 1 h at RT. The plate was read on an Envision reader using the Luminescence protocol, and the data were exported for analysis.
The IC50 values (concentration producing a half-maximal inhibitory response) were determined by non-linear regression analysis of the concentration-response curves.

[4] = CHO-K1, read-out: cAMP (agonist mode) Emax
[5] = CHO-K1, read-out: β-arrestin (agonist mode) Emax
[6] = CHO-K1, read-out: Emax in cAMP agonist assay
[7] = CHO-K1, read-out: Emax in β-arrestin agonist assay

T1 sequence (P14416 whole entry, canonical isoform): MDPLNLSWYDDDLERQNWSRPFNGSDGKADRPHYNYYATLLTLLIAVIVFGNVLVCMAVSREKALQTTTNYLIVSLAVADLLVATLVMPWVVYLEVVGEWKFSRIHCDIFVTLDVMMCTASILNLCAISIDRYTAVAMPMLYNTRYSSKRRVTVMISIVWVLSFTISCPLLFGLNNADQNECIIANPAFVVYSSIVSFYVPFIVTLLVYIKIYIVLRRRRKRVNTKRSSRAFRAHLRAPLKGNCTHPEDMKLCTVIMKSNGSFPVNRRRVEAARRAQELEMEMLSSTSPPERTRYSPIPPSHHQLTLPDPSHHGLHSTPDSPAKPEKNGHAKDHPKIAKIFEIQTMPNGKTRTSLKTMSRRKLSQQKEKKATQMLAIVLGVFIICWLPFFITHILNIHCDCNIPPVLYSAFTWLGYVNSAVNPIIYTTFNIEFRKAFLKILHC

SMILES	IC50 [1] [nM]	Emax [1, 4] [%]	EC50 [2] [nM]	Emax [2, 5] [%]	IC50 [3] [nM]	Emax [3] [%]	Emax [1, 6] [%]	Emax [2, 7] [%]
O=C1NCCc2ccc(OCCCCN3CCc4cc(F)ccc4C3)nc2N1 [Compound 84, 8-(4-(6-fluoro-3,4-dihydroisoquinolin-2(1H)-yl)butoxy)-4,5-dihydro-1H-pyrido[2,3-d][1,3]diazepin-2(3H)-one]	> 10000	< 10	> 10000	< 10	10 to 100	> 75		
Cc1cccc(N2CCN(CCCCOc3ccc4cn[nH]c4n3)CC2)c1C [Compound 3, 6-(4-(4-(2,3-dimethylphenyl)piperazin-1-yl)butoxy)-1H-pyrazolo[3,4-b]pyridine]	10 to 100	10 to 25	> 10000	< 10	100 to 1000	> 75		
c1ccc2c(N3CCN(CCCCOc4ccc5cn[nH]c5n4)CC3)cccc2c1 [Compound 2, 6-(4-(4-(naphthalen-1-yl)piperazin-1-yl)butoxy)-1H-pyrazolo[3,4-b]pyridine]	10 to 100	10 to 25	10 to 100	10 to 25	100 to 1000	50 to 75		
O=C1NCCc2ccc(OCCCCN3CCc4ccsc4C3)nc2N1 [Compound 87]	> 10000	< 10	> 10000	< 10	10 to 100	> 75		
O=C1CCc2ccc(OCCCCN3CCc4ncncc4C3)cc2N1 [Compound 23, 7-(4-(7,8-dihydropyrido[4,3-d]pyrimidin-6(5H)-yl)butoxy)-3,4-dihydroquinolin-2(1H)-one]	100 to 1000	50 to 75	100 to 1000	10 to 25	1000 to 10000	25 to 50		
CCOc1ccccc1N1CCN(CCCCOc2ccc3cn[nH]c3c2)CC1 [Compound 93, 6-(4-(4-(2-ethoxyphenyl)piperazin-1-yl)butoxy)-1H-indazole]	< 10	25 to 50	< 10	10 to 25	10 to 100	> 75		
COc1cccnc1N1CCN(CCCCOc2cccc(-c3cc[nH]n3)n2)CC1 [Compound 47, 1-(4-((6-(1H-pyrazol-3-yl)pyridin-2-yl)oxy)butyl)-4-(3-methoxypyridin-2-yl)piperazine]	< 10	50 to 75	< 10	10 to 25	< 10	50 to 75		
Clc1ccccc1N1CCN(CCCCOc2cccc(-c3cc[nH]n3)n2)CC1 [Compound 50, 1-(4-((6-(1H-pyrazol-3-yl)pyridin-2-yl)oxy)butyl)-4-(2-chlorophenyl)piperazine]	< 10	50 to 75	< 10	25 to 50	< 10	50 to 75		
O=C1CCc2ccc(OCCCCN3CCc4nn(-c5ccccc5)cc4C3)nc2N1 [Compound 82, 7-(4-(2-phenyl-6,7-dihydro-2H-pyrazolo[4,3-c]pyridin-5(4H)-yl)butoxy)-3,4-dihydro-1,8-naphthyridin-2(1H)-one]	> 10000	< 10	> 10000	< 10	100 to 1000	> 75		
COc1cccnc1N1CCN(CCCCOc2ccc3cn[nH]c3c2)CC1 [Compound 99, 6-(4-(4-(3-methoxypyridin-2-yl)piperazin-1-yl)butoxy)-1H-indazole]	< 10	25 to 50	< 10	10 to 25	10 to 100	> 75		
Cc1ccc2c(c1)CN(CCCCOc1ccc3c(n1)NC(=O)CC3)CC2 [Compound 81, 7-(4-(7-methyl-3,4-dihydroisoquinolin-2(1H)-yl)butoxy)-3,4-dihydro-1,8-naphthyridin-2(1H)-one]	> 10000	< 10	> 10000	< 10	10 to 100	> 75		
O=c1ccc2ccc(OCCCCN3CCc4cc(F)ccc4C3)nc2[nH]1 [Compound 56, 7-(4-(6-fluoro-3,4-dihydroisoquinolin-2(1H)-yl)butoxy)-1,8-naphthyridin-2(1H)-one]	> 10000	< 10	> 10000	< 10	< 10	> 75		
O=c1ccc2ccc(OCCCCN3CCc4cccc(C(F)(F)F)c4C3)nc2[nH]1 [Compound 63, 7-(4-(8-(trifluoromethyl)-3,4-dihydroisoquinolin-2(1H)-yl)butoxy)-1,8-naphthyridin-2(1H)-one]	> 10000	< 10	> 10000	< 10	10 to 100	> 75		
Clc1cccc(N2CCN(CCCCOc3cccc(-c4cc[nH]n4)n3)CC2)c1Cl [Compound 46, 1-(4-((6-(1H-pyrazol-3-yl)pyridin-2-yl)oxy)butyl)-4-(2,3-dichlorophenyl)piperazine]	< 10	50 to 75	< 10	10 to 25	< 10	50 to 75		
O=C1CCc2ccc(OCCCCN3CCn4cncc4C3)cc2N1 [Compound 33, 7-(4-(5,6-dihydroimidazo[1,5-a]pyrazin-7(8H)-yl)butoxy)-3,4-dihydroquinolin-2(1H)-one]	> 10000	< 10	> 10000	< 10	1000 to 10000	50 to 75		
Oc1cccc2ccc(OCCCCN3CCc4cc(F)ccc4C3)nc12 [Compound 16, 2-(4-(6-fluoro-3,4-dihydroisoquinolin-2(1H)-yl)butoxy)quinolin-8-ol]	> 10000	< 10	> 10000	< 10	100 to 1000	> 75		
O=C1CCc2ccc(OCCCCN3CCc4cc(Cl)ccc4C3)nc2N1 [Compound 75, 7-(4-(6-chloro-3,4-dihydroisoquinolin-2(1H)-yl)butoxy)-3,4-dihydro-1,8-naphthyridin-2(1H)-one]	< 10	10 to 25	> 10000	< 10	10 to 100	> 75		
O=C1CCc2ccc(OCCCCN3CCc4c(cccc4C(F)(F)F)C3)nc2N1 [Compound 77, 7-(4-(5-(trifluoromethyl)-3,4-dihydroisoquinolin-2(1H)-yl)butoxy)-3,4-dihydro-1,8-naphthyridin-2(1H)-one]	10 to 100	50 to 75	100 to 1000	50 to 75	> 10000	< 10		
CCCN(CCC)CCc1cccc2c1CC(=O)N2 [ropinirole, reference compound]							≥ 90	≥ 90
O=C1CCc2ccc(OCCCCN3CCc4sccc4C3)nc2N1 [Compound 69, 7-(4-(6,7-dihydrothieno[3,2-c]pyridin-5(4H)-yl)butoxy)-3,4-dihydro-1,8-naphthyridin-2(1H)-one]	> 10000	< 10	> 10000	< 10	10 to 100	> 75		
N#Cc1cccnc1N1CCN(CCCCOc2ccc3cccc(O)c3n2)CC1 [Compound 22, 2-(4-(4-((8-hydroxyquinolin-2-yl)oxy)butyl)piperazin-1-yl)nicotinonitrile]	< 10	25 to 50	10 to 100	25 to 50	100 to 1000	25 to 50		
CCCN[C@H]1CCc2nc(N)sc2C1 [pramipexole, reference compound]							≥ 90	≥ 90
